# Patent US12516046B2, “2-oxo-oxazolidine-5-carboxamides as NAV1.8 inhibitors” (Merck Sharp & Dohme LLC, priority 2020, dated 2026)
# Molecular target: human Nav1.8 (Homo sapiens (Human), UniProt Q9Y5Y9)
# Experiment: Nav1.8 Qube® Assay (automated 384-well patch-clamp)
# Assay type: cell-based
# Settings: human Nav1.8 channels stably expressed in HEK 293 cells
# Text: Qube® Assay Experimental Procedure
# Chain of human Nav1.8 (Q9Y5Y9 whole entry): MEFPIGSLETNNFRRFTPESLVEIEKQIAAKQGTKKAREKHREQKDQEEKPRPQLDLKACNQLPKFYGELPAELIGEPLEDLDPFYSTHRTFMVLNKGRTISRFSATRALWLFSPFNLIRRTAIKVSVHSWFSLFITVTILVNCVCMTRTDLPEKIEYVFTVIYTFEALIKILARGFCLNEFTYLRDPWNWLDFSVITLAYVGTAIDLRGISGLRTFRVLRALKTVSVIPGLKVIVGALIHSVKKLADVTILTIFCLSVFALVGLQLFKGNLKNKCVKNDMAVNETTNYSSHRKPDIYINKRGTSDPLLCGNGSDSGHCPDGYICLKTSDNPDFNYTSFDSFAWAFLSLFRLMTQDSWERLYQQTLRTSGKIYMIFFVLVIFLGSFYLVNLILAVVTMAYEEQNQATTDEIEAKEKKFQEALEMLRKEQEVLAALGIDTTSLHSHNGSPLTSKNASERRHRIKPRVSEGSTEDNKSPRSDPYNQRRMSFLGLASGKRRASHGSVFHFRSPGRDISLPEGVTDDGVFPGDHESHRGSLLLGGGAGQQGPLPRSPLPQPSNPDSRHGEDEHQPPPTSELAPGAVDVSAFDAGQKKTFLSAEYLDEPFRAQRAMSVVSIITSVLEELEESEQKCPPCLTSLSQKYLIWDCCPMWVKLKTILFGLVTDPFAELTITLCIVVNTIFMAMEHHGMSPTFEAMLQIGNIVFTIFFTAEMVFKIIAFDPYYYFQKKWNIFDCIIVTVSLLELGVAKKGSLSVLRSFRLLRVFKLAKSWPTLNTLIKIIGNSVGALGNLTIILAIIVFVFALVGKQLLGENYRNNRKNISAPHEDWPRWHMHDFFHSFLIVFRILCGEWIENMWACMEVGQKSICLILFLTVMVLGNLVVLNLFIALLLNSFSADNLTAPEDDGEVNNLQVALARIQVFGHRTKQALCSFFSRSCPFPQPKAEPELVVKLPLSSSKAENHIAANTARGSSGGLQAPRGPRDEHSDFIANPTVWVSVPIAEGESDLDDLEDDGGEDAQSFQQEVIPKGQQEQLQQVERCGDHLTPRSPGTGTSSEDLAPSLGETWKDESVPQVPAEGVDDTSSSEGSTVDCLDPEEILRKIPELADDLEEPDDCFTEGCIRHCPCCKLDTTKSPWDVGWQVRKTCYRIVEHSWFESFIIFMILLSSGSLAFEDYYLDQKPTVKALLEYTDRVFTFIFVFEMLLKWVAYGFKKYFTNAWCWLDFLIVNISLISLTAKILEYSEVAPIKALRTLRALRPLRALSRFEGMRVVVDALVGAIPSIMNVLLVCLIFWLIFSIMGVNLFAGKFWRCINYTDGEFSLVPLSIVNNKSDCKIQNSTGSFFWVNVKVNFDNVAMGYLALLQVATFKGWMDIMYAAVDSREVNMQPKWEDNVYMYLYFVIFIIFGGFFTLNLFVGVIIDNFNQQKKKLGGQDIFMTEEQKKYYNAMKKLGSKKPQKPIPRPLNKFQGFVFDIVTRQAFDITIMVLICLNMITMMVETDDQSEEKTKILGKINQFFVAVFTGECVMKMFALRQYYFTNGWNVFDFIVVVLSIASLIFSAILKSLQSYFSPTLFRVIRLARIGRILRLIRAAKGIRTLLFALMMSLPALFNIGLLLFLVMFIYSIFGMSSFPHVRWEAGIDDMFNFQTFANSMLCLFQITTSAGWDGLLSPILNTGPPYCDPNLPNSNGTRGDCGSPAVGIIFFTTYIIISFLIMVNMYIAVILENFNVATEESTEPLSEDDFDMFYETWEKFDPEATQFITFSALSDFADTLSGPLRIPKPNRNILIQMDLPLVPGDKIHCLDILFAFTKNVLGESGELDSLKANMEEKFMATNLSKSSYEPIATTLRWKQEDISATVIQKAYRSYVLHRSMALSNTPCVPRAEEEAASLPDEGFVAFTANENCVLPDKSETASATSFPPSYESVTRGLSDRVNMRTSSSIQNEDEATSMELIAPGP
row,IC50 [nM],Compound
1,1.6,"O=C1NC[C@@H](C(=O)NC(c2ccc(OCC(F)(F)F)nc2)c2ccc(F)c(Cl)c2F)O1 (single isomer, unassigned) [Example 50A, (S)—N—((R or S)-(3-chloro-2,4-difluorophenyl)(6-(2,2,2-trifluoroethoxy)pyridin-3-yl)methyl)-2-oxo-oxazolidine-5-carboxamide]"
2,48,"O=C1NC[C@@H](C(=O)NC(c2ccc(OCC(F)(F)F)nc2)c2ccc(F)c(Cl)c2F)O1 (single isomer, unassigned) [Example 50B, (S)—N—((R or S)-(3-chloro-2,4-difluorophenyl)(6-(2,2,2-trifluoroethoxy)pyridin-3-yl)methyl)-2-oxooxazolidine-5-carboxamide]"
3,5.3,"O=C1NC[C@@H](C(=O)NC(c2ccc(OC(F)(F)F)c(Cl)c2)c2coc(C(F)(F)F)n2)O1 (single isomer, unassigned) [Example 51A, (S)-N-((R or S)-(3-chloro-4-(trifluoro-methoxy)phenyl)(2-(trifluoromethyl)oxazol-4-yl)methyl)-2-oxooxazolidine-5-carboxamide]"
4,3.7,"O=C1NC[C@@H](C(=O)NC(c2ccc(OC(F)(F)F)c(Cl)c2)c2coc(C(F)(F)F)n2)O1 (single isomer, unassigned) [Example 51B, (S)-N-((R or S)-(3-chloro-4-(trifluoro-methoxy)phenyl)(2-(trifluoromethyl)oxazol-4-yl)methyl)-2-oxooxazolidine-5-carboxamide]"
5,7.9,"O=C1NC[C@@H](C(=O)NC(c2ccc(OC(F)(F)F)c(Cl)c2)c2ccnc(C(F)(F)F)n2)O1 (single isomer, unassigned) [Example 52A, (S)-N-((R or S)-(3-chloro-4-(trifluoromethoxy)phenyl)(2-(trifluoro-methyl)pyrimidin-4-yl)methyl)-2-oxooxazolidine-5-carboxamide]"
6,13,"O=C1NC[C@@H](C(=O)NC(c2ccc(OC(F)(F)F)c(Cl)c2)c2ccnc(C(F)(F)F)n2)O1 (single isomer, unassigned) [Example 52B, (S)-N-((R or S)-(3-chloro-4-(trifluoromethoxy)phenyl)(2-(trifluoro-methyl)pyrimidin-4-yl)methyl)-2-oxooxazolidine-5-carboxamide]"
7,22,"O=C1NC[C@@H](C(=O)NC(c2ccc(OC(F)(F)F)c(Cl)c2)c2cnn(C(F)(F)F)c2)O1 (single isomer, unassigned) [Example 53A, (S)-N-((R or S)-(3-chloro-4-(trifluoro-methoxy)phenyl)(1-(trifluoromethyl)-1H-pyrazol-4-yl)methyl)-2-oxooxazolidine-5-carboxamide]"
8,1.2,"O=C1NC[C@@H](C(=O)NC(c2ccc(OC(F)(F)F)c(Cl)c2)c2cnn(C(F)(F)F)c2)O1 (single isomer, unassigned) [Example 53B, (S)-N-((R or S)-(3-chloro-4-(trifluoro-methoxy)phenyl)(1-(trifluoromethyl)-1H-pyrazol-4-yl)methyl)-2-oxooxazolidine-5-carboxamide]"
9,1.7,"N#Cc1ccc(C(NC(=O)[C@@H]2CNC(=O)O2)c2cnc(C(F)(F)F)c(Cl)c2)cc1Cl (single isomer, unassigned) [Example 54A, (S)-N-((R or S)-(3-chloro-4-cyano-phenyl)(5-chloro-6-(trifluoromethyl)pyridin-3-yl)methyl)-2-oxooxazolidine-5-carboxamide]"
10,7.2,"N#Cc1ccc(C(NC(=O)[C@@H]2CNC(=O)O2)c2cnc(C(F)(F)F)c(Cl)c2)cc1Cl (single isomer, unassigned) [Example 54B, (S)-N-((R or S)-(3-chloro-4-cyano-phenyl)(5-chloro-6-(trifluoromethyl)pyridin-3-yl)methyl)-2-oxooxazolidine-5-carboxamide]"
11,19,"COc1cc(Cl)ccc1C(NC(=O)[C@@H]1CNC(=O)O1)c1ccc(F)cc1 (single isomer, unassigned) [Example 55A, (S)—N—((R or S)-(4-chloro-2-methoxyphenyl)(4-fluorophenyl)-methyl)-2-oxooxazolidine-5-carboxamide]"
12,4.7,"COc1cc(Cl)ccc1C(NC(=O)[C@@H]1CNC(=O)O1)c1ccc(F)cc1 (single isomer, unassigned) [Example 55B, (S)—N—((R or S)-(4-chloro-2-methoxyphenyl)(4-fluorophenyl)methyl)-2-oxooxazolidine-5-carboxamide]"
13,229,"O=C1NC[C@@H](C(=O)NC(c2ccc(Cl)cc2)C23C4C5C6C4C2C6C53)O1 (single isomer, unassigned) [Example 56A, (S)—N—((R or S)-(4-chlorophenyl)(cuban-1-yl)methyl)-2-oxooxazolidine-5-carboxamide]"
14,289,"O=C1NC[C@@H](C(=O)NC(c2ccc(Cl)cc2)C23C4C5C6C4C2C6C53)O1 (single isomer, unassigned) [Example 56B, (S)—N—((R or S)-(4-chlorophenyl)(cuban-1-yl)methyl)-2-oxooxazolidine-5-carboxamide]"
15,3450,"O=C1NC[C@@H](C(=O)NC(c2ccc(Cl)cc2)C2CCC(F)(F)C2)O1 (single isomer, unassigned) [Example 57A, (S)-N-((R or S)-(4-chlorophenyl)((R or S)-3,3-difluorocyclopentyl)methyl)-2-oxooxazolidine-5-carboxamide]"
16,5720,"O=C1NC[C@@H](C(=O)NC(c2ccc(Cl)cc2)C2CCC(F)(F)C2)O1 (single isomer, unassigned) [Example 57B, (S)-N-((R or S)-(4-chlorophenyl)((R or S)-3,3-difluorocyclopentyl)methyl)-2-oxooxazolidine-5-carboxamide]"
17,903,"O=C1NC[C@@H](C(=O)NC(c2ccc(Cl)cc2)C2CCC(F)(F)C2)O1 (single isomer, unassigned) [Example 57C, (S)-N-((R or S)-(4-chlorophenyl)((R or S)-3,3-difluorocyclopentyl)methyl)-2-oxooxazolidine-5-carboxamide]"
18,1160,"O=C1NC[C@@H](C(=O)NC(c2ccc(Cl)cc2)C2CCC(F)(F)C2)O1 (single isomer, unassigned) [Example 57D, (S)-N-((R or S)-(4-chlorophenyl)((R or S)-3,3-difluorocyclopentyl)methyl)-2-oxooxazolidine-5-carboxamide]"
19,12,"COc1ncccc1C(NC(=O)[C@@H]1CNC(=O)O1)c1ccc(F)c(Cl)c1 (single isomer, unassigned) [Example 58A, (S)-N-((R or S)-(3-chloro-4-fluorophenyl)(2-methoxypyridin-3-yl)methyl)-2-oxooxazolidine-5-carboxamide]"
20,24,"COc1ncccc1C(NC(=O)[C@@H]1CNC(=O)O1)c1ccc(F)c(Cl)c1 (single isomer, unassigned) [Example 58B, (S)-N-((R or S)-(3-chloro-4-fluorophenyl)(2-methoxypyridin-3-yl)methyl)-2-oxooxazolidine-5-carboxamide]"
21,171,"O=C1NC[C@@H](C(=O)NC(c2ccc(F)c(Cl)c2)c2cnn(CC(F)(F)F)c2)O1 (single isomer, unassigned) [Example 59A, (S)-N-((R or S)-(3-chloro-4-fluorophenyl)(1-(2,2,2-trifluoroethyl)-1H-pyrazol-4-yl)methyl)-2-oxooxazolidine-5-carboxamide]"

# Further lines, the compound ahead of its results:
row,Compound,IC50 [nM]
1,"O=C1NC[C@@H](C(=O)NC(c2ccc(F)c(Cl)c2)c2csc(C(F)(F)F)n2)O1 (single isomer, unassigned) [Example 44B, (S)—N—((R or S)-(3-chloro-4-fluorophenyl)(2-(trifluoro-methyl)thiazol-4-yl)methyl)-2-oxooxazolidine-5-carboxamide]",17
2,"Cc1cc(C(NC(=O)[C@@H]2CNC(=O)O2)c2ccc(Cl)cc2)ccc1Cl (single isomer, unassigned) [Example 46A, (S)-N-((R or S)-(4-chloro-3-methylphenyl)(4-chlorophenyl)methyl)-2-oxooxazolidine-5-carboxamide]",0.6
3,"Cc1cc(C(NC(=O)[C@@H]2CNC(=O)O2)c2ccc(Cl)cc2)ccc1Cl (single isomer, unassigned) [Example 46B, (S)-N-((R or S)-(4-chloro-3-methylphenyl)(4-chlorophenyl)methyl)-2-oxooxazolidine-5-carboxamide]",1.8
4,"O=C1NC[C@@H](C(=O)NC(c2ccc(Cl)cc2)c2ccc(Cl)cc2OC(F)(F)F)O1 (single isomer, unassigned) [Example 47A, (S)-N-((R or S)-(4-chloro-2-(trifluoromethoxy)phenyl)(4-chlorophenyl)methyl)-2-oxooxazolidine-5-carboxamide]",1.6
5,"O=C1NC[C@@H](C(=O)NC(c2ccc(Cl)cc2)c2ccc(Cl)cc2OC(F)(F)F)O1 (single isomer, unassigned) [Example 47B, (S)-N-((R or S)-(4-chloro-2-(trifluoromethoxy)phenyl)(4-chlorophenyl)-methyl)-2-oxooxazolidine-5-carboxamide]",17
6,"O=C1NC[C@@H](C(=O)NC(c2ccc(OC(F)F)cc2)c2ccc(F)c(Cl)c2)O1 (single isomer, unassigned) [Example 48A, (S)-N-((R or S)-(3-chloro-4-fluorophenyl)(4-(difluoromethoxy)phenyl)methyl)-2-oxooxazolidine-5-carboxamide]",2.7
7,"O=C1NC[C@@H](C(=O)NC(c2ccc(OC(F)F)cc2)c2ccc(F)c(Cl)c2)O1 (single isomer, unassigned) [Example 48B, (S)-N-((R or S)-(3-chloro-4-fluorophenyl)(4-(difluoromethoxy)phenyl)methyl)-2-oxooxazolidine-5-carboxamide]",6.8
8,"O=C1NC[C@@H](C(=O)NC(c2ccc(F)c(Cl)c2)c2cccc(C(F)(F)F)n2)O1 (single isomer, unassigned) [Example 49A, (S)-N-((R or S)-(3-chloro-4-fluorophenyl)(6-(trifluoromethyl)pyridin-2-yl)methyl)-2-oxooxazolidine-5-carboxamide]",8.8
9,"O=C1NC[C@@H](C(=O)NC(c2ccc(F)c(Cl)c2)c2cccc(C(F)(F)F)n2)O1 (single isomer, unassigned) [Example 49B, (S)-N-((R or S)-(3-chloro-4-fluorophenyl)(6-(trifluoromethyl)pyridin-2-yl)methyl)-2-oxooxazolidine-5-carboxamide]",54
